Patent publication US8389276B2 (priority 2001, dated 2013)
Like-named read-outs stand apart in the source and are kept apart here.

Key:
wild type immortal cells = assay: Death rate of wild type immortalized cells after death stimuli (DAPI staining, FACS); assay type: cell-based, mouse; details: 24 hours, DAPI 1 μg/ml, FIG. 3A
Method: (§1) This example relates to determining that immortalized Bax/Bak doubly deficient cells are resistant to wide variety of death stimuli, including BH-3 only proapoptotic proteins. To test whether immortal Bax/Bak double deficient cells behave like primary Bax/Bak double deficient cells in resisting intrinsic cell death stimuli, wild type and Bax/Bak doubly deficient cells were treated with serum deprivation, etoposide (100 μM), staurosporin (4 μM), or brefeldin A (10 μg/ml). 24 hours later, cells were stained with DAPI (1 μg/ml), and death rate determined by FACS. Wild type immortal cells were killed by each of these death stimuli. This is consistent with the findings in the primary MEF cells.

[1] = test system: thymocytes isolated from the Bax/Bak double deficient mice
Description: (§2) To study how the apoptotic machinery is regulated, mice deficient in both Bax and Bak have been produced. […] The characteristics of Bax/Bak double deficient mice are described in greater detail in our publications: Lindsten, T., Ross, A. J., King, A., Zong, W. X., Rathmell, J. C., Shiels, H. A., Ulrich, E., Waymire, K. G., Mahar, P., Frauwirth, K., Chen, Y., Wei, M., Eng, V. M., Adelman, D. M., Simon, M. C., Ma, A., Golden, J. A., Evan, G., Korsmeyer, S. J., MacGregor, G. R., and Thompson, C.

[2] = test system: Bax/Bak doubly deficient cells; assay: Death rate of Bax/Bak doubly deficient immortalized cells after death stimuli (DAPI staining, FACS); assay type: cell-based, mouse; details: Bax/Bak doubly deficient immortal cells, 24 hours, DAPI 1 μg/ml, FIG. 3A
Method: as §1

[3] = test system: primary fibroblasts isolated from Bax/Bak double deficient mice; assay type: cell-based, mouse
Description: as §2

[4] = primary fibroblasts from Bax/Bak double deficient mice

`COc1cc([C@@H]2c3cc4c(cc3[C@@H](O[C@@H]3O[C@@H]5CO[C@@H](C)O[C@H]5[C@H](O)[C@H]3O)[C@H]3COC(=O)[C@H]23)OCO4)cc(OC)c1O` [etoposide] was tested, and the “cell death (death rate by FACS)” value (wild type immortal cells; etoposide 100 μM) was “killed”, the “resistance to induced cell death” value [1] was “resistant” and the “cell death (death rate by FACS)” value ([2]; etoposide 100 μM) was “survived”. For the same compound, the “resistance to death stimulus” value [3, 4] was “resistant”.

In the case of `C[C@H]1CCC/C=C/[C@@H]2C[C@H](O)C[C@H]2[C@H](O)/C=C/C(=O)O1` [brefeldin A], the “cell death (death rate by FACS)” value (wild type immortal cells; brefeldin A 10 μg/ml) is reported as “killed”, the “cell death (death rate by FACS)” value ([2]; brefeldin A 10 μg/ml) is reported as “survived” and the “resistance to death stimulus” value [3, 4] is reported as “resistant”.

For `CN[C@@H]1C[C@H]2O[C@@](C)([C@@H]1OC)n1c3ccccc3c3c4c(c5c6ccccc6n2c5c31)C(=O)NC4` [staurosporin], the “cell death (death rate by FACS)” value (wild type immortal cells; staurosporin 4 μM) was “killed”, the “cell death (death rate by FACS)” value ([2]; staurosporin 4 μM) was “survived” and the “resistance to death stimulus” value [3] was “resistant”.

In the case of tharpsigargin, the “resistance to death stimulus” value [3, 4] is reported as “resistant”.

tunicamycin was tested, and the “resistance to death stimulus” value [3, 4] was “resistant”.
